Experimental data reported in patent US10774039B2, “Cyclopropene amino acids and methods” (United Kingdom Research and Innovation, priority 2014, dated 2020).

Tested on: PylRS, PyltRNAUUU
Test: Time-dependent proteome incorporation of 3 via SORT-M in E. coli, detected with 4a
Type: cell-based
Conditions: AAA codon, detection with 4a
Description: Chemically competent DH10B cells were transformed with two plasmids: pBKwtPylRS necessary for expression of PylRS, and pBAD_wtT4LMbPylTUUU plasmid that is required for expression of PyltRNAUUU. pBAD_wtT4L_MbPylTUUU plasmid also contains the gene for expression of T4 lysozyme that is downstream of arabinose-inducible promoter. After transformation, cells were recovered in 1 ml SOB medium for one hour at 37° C. prior to inoculation in 10 ml LB-KT (LB media with 50 μg ml^−1 kanamycin, and 25 μg tetracycline). The culture was incubated overnight (37° C., 250 rpm, 12 h) and subsequently diluted to an OD600˜0.3 in 30 mL LB-KT1/2 (LB media with 25 μg ml^−1 kanamycin, and 12.5 μg ml^−1 tetracycline) supplemented with 3 at different concentrations, 0, 0.1, 0.5 mM. The cultures was incubated (37° C., 250 rpm) for 1 h, when OD600 reached approximately 0.6. 2 ml culture aliquot was collected in a separate tube for each of three cultures. This is the pre-induction culture (lane labelled as 1 in the gel image). Subsequently arabinose was added at a final concentration of 0.2% (v/v) to induce expression of T4 lysozyme and culture aliquots of 2 mL were collected every hour (lanes labelled as 2, 3 and 4 corresponding to 1, 2 and 3 h culture collection after induction). […] Samples were analysed by 4-12% SDS-PAGE and fluorescent images were acquired using Typhoon Trio phosphoimager (GE Life Sciences) […]

Structure (SMILES): CC1=CC1COC(=O)NCCCC[C@H](N)C(=O)O (stereo partly drawn) [amino acid 3, N^ε-[((2-methylcycloprop-2-en-1-yl)methoxy)carbonyl]-L-lysine]
- time to substantial labelling after amino acid addition: ≤ 1 h
